Measurements as given in BigSolDB 2.1.

O=C1NC(=O)c2ccccc21
solubility (mole fraction)
Conditions | in acetone | in acetonitrile | in ethanol | in ethyl acetate | in isobutanol | in isopropanol | in methanol | in n-butanol | in n-propanol | in toluene
283.15 K | 0.00783 | 0.00145 | 0.00116 | 0.00388 | 0.0014 | 0.00159 | 0.00129 | 0.00166 | 0.00156 | 0.000253
285.65 K | 0.00854 | 0.00161 | 0.00133 | 0.00441 | 0.00155 | 0.00175 | 0.00142 | 0.00185 | 0.00173 | 0.000295
288.15 K | 0.00935 | 0.0018 | 0.00151 | 0.00498 | 0.00171 | 0.00198 | 0.00162 | 0.00203 | 0.00188 | 0.000348
290.65 K | 0.0101 | 0.00209 | 0.0017 | 0.00557 | 0.0019 | 0.0022 | 0.00183 | 0.00221 | 0.00203 | 0.000401
293.15 K | 0.011 | 0.00238 | 0.00193 | 0.00615 | 0.00206 | 0.00247 | 0.0021 | 0.00243 | 0.00222 | 0.000456
295.65 K | 0.0119 | 0.00271 | 0.00215 | 0.00677 | 0.00222 | 0.0027 | 0.00236 | 0.00266 | 0.00242 | 0.000514
298.15 K | 0.0128 | 0.00305 | 0.0024 | 0.00749 | 0.00242 | 0.00298 | 0.0026 | 0.00285 | 0.00263 | 0.000577
300.15 K | 0.0137 | 0.00335 | 0.0026 | 0.00813 | 0.0026 | 0.0033 | 0.00288 | 0.00308 | 0.00282 | 0.000624
303.15 K | 0.0149 | 0.00385 | 0.00302 | 0.00879 | 0.00292 | 0.00365 | 0.00317 | 0.00336 | 0.00308 | 0.000694
305.65 K | 0.0159 | 0.0043 | 0.00335 | 0.0097 | 0.00315 | 0.00402 | 0.00346 | 0.00362 | 0.00339 | 0.000756
308.15 K | 0.017 | 0.00472 | 0.00369 | 0.0105 | 0.0034 | 0.00438 | 0.00373 | 0.00393 | 0.00369 | 0.000828
310.65 K | 0.0181 | 0.00518 | 0.00409 | 0.0114 | 0.00368 | 0.00479 | 0.00405 | 0.00424 | 0.00399 | 0.0009
313.15 K | 0.0194 | 0.00577 | 0.00462 | 0.0125 | 0.00398 | 0.00523 | 0.00445 | 0.00456 | 0.0043 | 0.000969
315.65 K | 0.0209 | 0.00631 | 0.00523 | 0.0138 | 0.00428 | 0.00575 | 0.00483 | 0.0049 | 0.00466 | 0.00105
318.15 K | 0.0221 | 0.00686 | 0.00582 | 0.0152 | 0.00469 | 0.00632 | 0.00525 | 0.0054 | 0.005 | 0.00114
